molecular target: IgE-Tb / sFcεRIα-Y131A-AF488 (Homo sapiens, UniProt P01854, N146Q/N252Q); assay: IgE-Tb / sFcεRIα-Y131A-AF488 FRET assay (protocol for examples 234 to 501); assay type: binding; details: examples 234 to 501: compound with IgE-Tb 30 minutes before sFcεRIα-Y131A-AF488, incubated 18 hours at room temperature; read-out: Y131A FRET IC50 range
Method in brief: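 Read-out is the 520/490 nm emission ratio (337 nm excitation) after 18 h at room temperature, background subtracted, fitted four-parameter for IC50. Final reagents: 5 nM IgE-Tb, preincubated 30 min with compound (top typically 10 μM, 2% DMSO, 3-fold 10-point), plus 25 nM sFcεRIα-Y131A-AF488.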

IgE-Tb / sFcεRIα-Y131A-AF488, sequence (P01854 whole entry N146Q/N252Q): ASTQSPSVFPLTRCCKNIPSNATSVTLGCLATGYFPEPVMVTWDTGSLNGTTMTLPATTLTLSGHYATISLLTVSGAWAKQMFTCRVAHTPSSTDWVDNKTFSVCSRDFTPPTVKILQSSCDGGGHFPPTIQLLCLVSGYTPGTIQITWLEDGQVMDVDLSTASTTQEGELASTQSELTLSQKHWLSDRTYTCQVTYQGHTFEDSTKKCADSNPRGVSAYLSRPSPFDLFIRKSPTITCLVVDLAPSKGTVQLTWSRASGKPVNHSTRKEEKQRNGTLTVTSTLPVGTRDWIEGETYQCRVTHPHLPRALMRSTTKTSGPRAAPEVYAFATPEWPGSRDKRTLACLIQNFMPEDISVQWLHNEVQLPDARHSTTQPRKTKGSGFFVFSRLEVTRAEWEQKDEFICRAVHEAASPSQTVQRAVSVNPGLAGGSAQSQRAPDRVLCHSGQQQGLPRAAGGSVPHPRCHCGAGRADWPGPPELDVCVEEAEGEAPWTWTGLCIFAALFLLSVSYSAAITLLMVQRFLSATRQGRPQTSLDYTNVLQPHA

Question: Which IC50 does the source give for `COc1cc(Nc2nncn2[C@H]2CCc3sc(NC(=O)[C@H]4C[C@@H]4C)c(C(=O)NC[C@@H]4CC4(F)F)c3C2)n(C)n1` (single isomer, unassigned) [Example 464] here?
Answer: < 1000 nM

Question: How did the IC50 turn out when `Cn1nc(C(F)F)cc1Nc1nncn1[C@H]1CCc2sc(NC(=O)[C@H]3C[C@H](F)C3)c(C(=O)N[C@@H]3CC34CC4)c2C1` (single isomer, unassigned) [Example 469] was run?
Answer: < 1000 nM

Question: For `Cn1nc(C(F)F)cc1Nc1nncn1[C@H]1CCc2sc(NC(=O)[C@H]3C[C@H](F)C3)c(C(=O)N[C@H]3CC34CC4)c2C1` (single isomer, unassigned) [Example 470], which IC50 is on record?
Answer: < 1000 nM

Question: For `Cn1nc(C(F)F)cc1Nc1nncn1[C@H]1CCc2sc(NC(=O)[C@H]3C[C@H](F)C3)c(C(=O)NC[C@H]3C[C@H](F)C3)c2C1` (single isomer, unassigned) [Example 474], which IC50 is on record?
Answer: < 1000 nM

Question: How did the IC50 turn out when `Cn1nc(C(F)F)cc1Nc1nncn1[C@H]1CCc2sc(NC(=O)[C@H]3C[C@@H](F)C3)c(C(=O)NC[C@H]3C[C@H](F)C3)c2C1` (single isomer, unassigned) [Example 475] was run?
Answer: < 1000 nM

Question: For `Cn1nc(C(F)F)cc1Nc1nncn1[C@H]1CCc2sc(NC(=O)[C@H]3C[C@H](F)C3)c(C(=O)N[C@H]3C[C@H](F)C3)c2C1` (single isomer, unassigned) [Example 476], which IC50 is on record?
Answer: < 1000 nM

Question: How did the IC50 turn out when `Cn1nc(C(F)F)cc1Nc1nncn1[C@H]1CCc2sc(NC(=O)[C@H]3C[C@@H](F)C3)c(C(=O)N[C@H]3C[C@H](F)C3)c2C1` (single isomer, unassigned) [Example 477] was run?
Answer: < 1000 nM

Question: Which IC50 does the source give for `Cn1nc(OC(F)F)cc1Nc1nncn1[C@H]1CCc2sc(NC(=O)[C@H]3C[C@H](F)C3)c(C(=O)N[C@@H]3CC34CC4)c2C1` (single isomer, unassigned) [Example 484] here?
Answer: < 1000 nM

Question: Which IC50 does the source give for `Cn1nc(OC(F)F)cc1Nc1nncn1[C@H]1CCc2sc(NC(=O)[C@H]3C[C@H](F)C3)c(C(=O)N[C@H]3CC34CC4)c2C1` (single isomer, unassigned) [Example 485] here?
Answer: < 1000 nM

Question: With `Cn1nc(OC(F)F)cc1Nc1nncn1[C@H]1CCc2sc(NC(=O)[C@H]3C[C@H](F)C3)c(C(=O)NC[C@H]3CC3(F)F)c2C1` (single isomer, unassigned) [Example 488] as the compound, how does the IC50 read?
Answer: < 1000 nM

Question: For `Cn1nc(C(F)F)cc1Nc1nncn1[C@H]1CCc2sc(NC(=O)C3CC3)c(C(=O)N[C@H]3CC34CC4)c2C1` (single isomer, unassigned) [Example 495], which IC50 is on record?
Answer: < 1000 nM

Question: `Cn1nc(C(F)(F)F)cc1Nc1nncn1C1COc2sc(NC(=O)C3CC3)c(C(=O)NCC3CC3)c2C1` (single isomer, unassigned) [Example 501, (3R*)-6-(cyclopropanecarbonylamino)-N-(cyclopropylmethyl)-3-[3-[[2-methyl-5-(trifluoromethyl)pyrazol-3-yl]amino]-1,2,4-triazol-4-yl]-3,4-dihydro-2H-thieno[2,3-b]pyran-5-carboxamide (* or S)] was tested. Which IC50 did it give?
Answer: < 1000 nM

Question: How did the IC50 turn out when `Cc1ccc(N2CC[C@H](Nc3nncn3[C@H]3CCc4sc(NC(=O)C5CC5)c(C(=O)NCC5CC5)c4C3)C2)nn1` [Example 240, (5S)-2-cyclopropaneamido-N-(cyclopropylmethyl)-5-(3-{[(35)-1-(6-methylpyridazin-3-yl)pyrrolidin-3-yl]amino}-4H-1,2,4-triazol-4-yl)-4,5,6,7-tetrahydro-1-benzothiophene-3-carboxamide] was run?
Answer: < 1000 nM

Question: Which IC50 does the source give for `O=C(NCC1CC1)c1c(NC(=O)C2CC2)sc2c1C[C@@H](n1cnnc1N[C@H]1CCN(c3cnccn3)C1)CC2` [Example 241, (5S)-2-(cyclopropanecarbonylamino)-N-(cyclopropylmethyl)-5-[3-[[(3S)-1-pyrazin-2-ylpyrrolidin-3-yl]amino]-1,2,4-triazol-4-yl]-4,5,6,7-tetrahydrobenzothiophene-3-carboxamide] here?
Answer: < 1000 nM

Question: Which IC50 does the source give for `O=C1NCc2c(Nc3nncn3[C@H]3CCc4sc(NC(=O)C5CC5)c(C(=O)NCC5CC5)c4C3)cccc21` [Example 244, (5S)-2-cyclopropaneamido-N-(cyclopropylmethyl)-5-{3-[(1-oxo-2,3-dihydro-1H-isoindol-4-yl)amino]-4H-1,2,4-triazol-4-yl}-4,5,6,7-tetrahydro-1-benzothiophene-3-carboxamide] here?
Answer: < 1000 nM

Question: `O=C(NCC1CC1)c1c(NC(=O)C2CC2)sc2c1C[C@@H](n1cnnc1N[C@H]1CCN(c3ccc(F)nn3)C1)CC2` [Example 245, (5S)-2-(cyclopropanecarbonylamino)-N-(cyclopropylmethyl)-5-[3-[[(3S)-1-(6-fluoropyridazin-3-yl)pyrrolidin-3-yl]amino]-1,2,4-triazol-4-yl]-4,5,6,7-tetrahydrobenzothiophene-3-carboxamide] was tested. Which IC50 did it give?
Answer: < 1000 nM

Question: With `O=C(NCC1CC1)c1c(NC(=O)C2CC2)sc2c1C[C@@H](n1cnnc1N[C@H]1CCN(c3ncccn3)C1)CC2` [Example 246] as the compound, how does the IC50 read?
Answer: < 1000 nM

Question: How did the IC50 turn out when `COCCOC(=O)c1ncn([C@H]2CCc3sc(NC(=O)C4CC4)c(C(=O)NCC4CC4)c3C2)c1N` [Example 247, 2-methoxyethyl 5-amino-1-[(5S)-2-(cyclopropanecarbonylamino)-3-(cyclopropylmethylcarbamoyl)-4,5,6,7-tetrahydro-1-benzothiophen-5-yl]imidazole-4-carboxylate] was run?
Answer: < 1000 nM

Question: `Nc1c(C(=O)OCCN2CCOCC2)ncn1[C@H]1CCc2sc(NC(=O)C3CC3)c(C(=O)NCC3CC3)c2C1` [Example 248, 2-morpholin-4-ylethyl 5-amino-1-[(5S)-2-(cyclopropanecarbonylamino)-3-(cyclopropylmethylcarbamoyl)-4,5,6,7-tetrahydro-1-benzothiophen-5-yl]imidazole-4-carboxylate] was tested. Which IC50 did it give?
Answer: < 1000 nM

Question: For `CSc1cccc(Nc2nncn2[C@H]2CCc3sc(NC(=O)C4CC4)c(C(=O)NCC4CC4)c3C2)c1` [Example 249, (5S)-2-(cyclopropanecarbonylamino)-N-(cyclopropylmethyl)-5-[3-(3-methylsulfanylanilino)-1,2,4-triazol-4-yl]-4,5,6,7-tetrahydrobenzothiophene-3-carboxamide], which IC50 is on record?
Answer: < 1000 nM

Question: Which IC50 does the source give for `CS(=O)(=O)c1cccc(Nc2nncn2[C@H]2CCc3sc(NC(=O)C4CC4)c(C(=O)NCC4CC4)c3C2)c1` [Example 250, (5S)-2-(cyclopropanecarbonylamino)-N-(cyclopropylmethyl)-5-[3-(3-methylsulfonylanilino)-1,2,4-triazol-4-yl]-4,5,6,7-tetrahydrobenzothiophene-3-carboxamide] here?
Answer: < 1000 nM

Question: How did the IC50 turn out when `C[S+]([O-])c1cccc(Nc2nncn2[C@H]2CCc3sc(NC(=O)C4CC4)c(C(=O)NCC4CC4)c3C2)c1` (stereo partly drawn) [Example 251, (5S)-2-(cyclopropanecarbonylamino)-N-(cyclopropylmethyl)-5-[3-(3-methylsulfinylanilino)-1,2,4-triazol-4-yl]-4,5,6,7-tetrahydrobenzothiophene-3-carboxamide] was run?
Answer: < 1000 nM

Question: With `C[S+]([O-])c1cccc(Nc2nncn2[C@H]2CCc3sc(NC(=O)C4CC45CC5)c(C(=O)NCC4CC4)c3C2)n1` (stereo partly drawn) [Example 255, (5S)—N-(cyclopropylmethyl)-5-[3-[(6-methylsulfinyl-2-pyridyl)amino]-1,2,4-triazo-4-yl]-2-(spiro[2.2]pentane-2-carbonylamino)-4,5,6,7-tetrahydrobenzothiophene-3-carboxamide] as the compound, how does the IC50 read?
Answer: < 1000 nM

Question: Which IC50 does the source give for `COc1ccc2c(c1)Nc1c(ncn1[C@H]1CCc3sc(NC(=O)C4CC4)c(C(=O)NCC4CC4)c3C1)C(=O)N2` [Example 257, (5S)-2-(cyclopropanecarbonylamino)-N-(cyclopropylmethyl)-5-(8-methoxy-4-oxo-5,10-dihydroimidazo[4,5-c][1,5]benzodiazepin-1-yl)-4,5,6,7-tetrahydrobenzothiophene-3-carboxamide] here?
Answer: < 1000 nM

Question: For `COc1ccc2c(c1)Nc1c(ncn1[C@H]1CCc3sc(NC(=O)C4CC4)c(C(=O)NCC4CC4)c3C1)C(=O)N2C` [Example 258, (5S)-2-(cyclopropanecarbonylamino)-N-(cyclopropylmethyl)-5-(8-methoxy-5-methyl-4-oxo-10H-imidazo[4,5-c][1,5]benzodiazepin-1-yl)-4,5,6,7-tetrahydrobenzothiophene-3-carboxamide], which IC50 is on record?
Answer: < 1000 nM

Question: Which IC50 does the source give for `Nc1c(C(=O)N2CC[C@@H](O)C2)ncn1[C@H]1CCc2sc(NC(=O)C3CC3)c(C(=O)NCC3CC3)c2C1` [Example 260, (5S)-5-[5-amino-4-[(3R)-3-hydroxypyrrolidine-1-carbonyl]imidazol-1-yl]-2-(cyclopropanecarbonylamino)-N-(cyclopropylmethyl)-4,5,6,7-tetrahydrobenzothiophene-3-carboxamide] here?
Answer: < 1000 nM

Question: For `C[C@H]1CCCN1C(=O)c1ncn([C@H]2CCc3sc(NC(=O)C4CC4)c(C(=O)NCC4CC4)c3C2)c1N` [Example 261, (5S)-5-[5-amino-4-[(2S)-2-methylpyrrolidine-1-carbonyl]imidazol-1-yl]-2-(cyclopropanecarbonylamino)-N-(cyclopropylmethyl)-4,5,6,7-tetrahydrobenzothiophene-3-carboxamide], which IC50 is on record?
Answer: < 1000 nM

Question: With `CCOC(=O)c1ncn([C@H]2CCc3sc(NC(=O)C4CC4)c(C(=O)NCC4CC4)c3C2)c1Nc1c([N+](=O)[O-])c(C)nn1C` [Example 262, Ethyl 1-[(5S)-2-(cyclopropanecarbonylamino)-3-(cyclopropylmethylcarbamoyl)-4,5,6,7-tetrahydrobenzothiophen-5-yl]-5-[(2,5-dimethyl-4-nitro-pyrazol-3-yl)amino]imidazole-4-carboxylate] as the compound, how does the IC50 read?
Answer: < 1000 nM

Question: Which IC50 does the source give for `Cc1c(Nc2nncn2[C@H]2CCc3sc(NC(=O)C4CC4)c(C(=O)NCC4CC4)c3C2)cccc1[S+](C)[O-]` (stereo partly drawn) [Example 263, (5S)-2-(cyclopropanecarbonylamino)-N-(cyclopropylmethyl)-5-[3-(2-methyl-3-methylsulfinyl-anilino)-1,2,4-triazol-4-yl]-4,5,6,7-tetrahydrobenzothiophene-3-carboxamide] here?
Answer: < 1000 nM

— patent publication US12018021B2 (UCB Biopharma SRL, priority 2018, dated 2024)
